# Experimental data reported in patent US20260364072A1, “METHODS FOR PROMOTING EXPANSION OF HUMAN CD34+ CELLS IN VIVO AND FOR PROMOTING NEURAL REGENERATION” (THE REGENTS OF THE UNIVERSITY OF CALIFORNIA, priority 2023, published 2026).
# Columns and labels:
# AZIN1 transcript = AZIN1 transcript editing by RESSqPCR in TF1a cells; assay type: cell-based, human; details: shADAR1-transduced cells treated with Rebecsinib compared with vehicle controls
# Excerpt: For lentivirus-mediated knockdown of human ADAR1 in ADAR1 activation and RNA editing biomarker studies of the nanoluc-GFP reporter and endogenous transcripts, human leukemia cells were stably transduced with the lentiviral shRNA vectors targeting ADAR1 (shADAR1) or scrambled control (shCtrl) to ablate endogenous ADAR1 expression. The shRNA plasmids targeting ADAR1 (shADAR1) as well as the scrambled control (shCtrl) were purchased from VectorBuilder (Chicago, IL) (shCtrl: […] (SEQ ID NO:3) and shADAR1: […]) (SEQ ID NO:4). […] Viral titers were assessed by qRT-PCR and transduction efficiency was tested in 293T cells. […]
# For quantitative analysis of splice isoform expression, RNA editing rates, and whole gene expression by qRT-PCR, cells or tissue fragments were harvested in RNA lysis buffer and total RNA was extracted using RNeasy mini or micro extraction kits (QIAGEN, Germantown, MD) following the manufacturer's protocol including a DNase incubation step to digest any trace genomic DNA present. Levels of ADAR1 variants and LSC-specific transcripts were quantified by qRT-PCR as previously described.^14 RNA-editing site-specific qRT-PCR (RESSqPCR) was performed for variants in AZIN1 transcripts.^53 Additional species-specific primers were also designed to quantify intron retention rates in cells treated with Rebecsinib as a biomarker of response to RNA splicing modulation. […]
# [1] = tested on: human CD45+ADAR1-GFP+ cells and CD45+CD3+ADAR1-GFP+ cells; assay: aNBM SAK378 PDX mice, flow cytometry; assay type: in vivo, human cells in NSG-SGM3 mice; details: 10 mg/kg, IV, BIW×2
# Method: Aged normal bone marrow (aNBM) PDX mouse models SAK378 were established with 80-100K ADAR1-reporter transduced CD34+ cells by IV injection into NSG-SGM3 mice at the age of 5-6 weeks. When the models were ready, the mice were treated with either vehicle or rebecsinib (10 mg/kg, IV, BIW×2). The mice were sacrificed upon completion of the dosing plan, and single cells from PB, SP, and BM were collected and stained with mAbs for CD45, CD3, CD14, and CD19.
# [2] = tested on: sAML LSC, MF HPC, normal HSPC; assay: Clonogenic survival and replating (self-renewal) assays in stromal co-culture; assay type: cell-based, human
# Excerpt: (FIG. 28D, FIG. 28E) Quantification of colony formation (survival, FIG. 28D) and replating (self-renewal, FIG. 28E) of high-risk MF HPC and sAML LSC compared with cord blood (CB) and aged versus young normal bone marrow (a-NBM, y-NBM) controls treated with Rebecsinib at increasing concentrations. Bar graphs show data as mean±SEM and statistical analyses by pairwise t-test and dose-response assays show data as mean±SD and statistical analyses by one-way ANOVA.
# (§1) Primary patient samples and normal bone marrow controls used for functional assays are described in Table 1. Human HS5 and HS27a^45 or mouse bone marrow cells lines SL (hSCF and hIL3) and M2 (hIL3 and hG-CSF) were irradiated and then mixed at a ratio of 1:1 and incubated overnight for attachment. […] After 2 weeks primary colonies (more than 40 cells) were counted and individual multilineage colonies were plucked, cells resuspended, and re-plated again in fresh MC. Secondary colonies were counted after another 14 days. […]
# as §1, with “Human” for “Primary patient samples and normal bone marrow controls used for functional assays are described in Table 1. Human”, “resuspended” for “resuspended,”
compound,measurement,setting,value
CC[C@H](OC)[C@@H](C)[C@H]1O[C@@H]1[C@@H](O)[C@H](C)/C=C/C=C(\C)[C@H]1OC(=O)C[C@H](O)CC[C@@](C)(O)[C@@H](OC(C)=O)/C=C/[C@@H]1C [Rebecsinib],AZIN1 transcript editing activity (RESSqPCR),AZIN1 transcript,low levels of AZIN1 transcript editing activity
same,"CD45+CD3+GFP+ cells in PB, SP, and BM",[1],spares the cell populations
same,"CD45+GFP+ cells in PB, SP, and BM",[1],spares the cell populations
same,effect on normal HSPC and mature hematopoietic progeny,"[2]; 1 μM, compared with DMSO (vehicle)",no significant differences
same,clonogenic survival and replating (self-renewal) sensitivity,"[2]; sAML LSC vs MF HPC or normal cord blood, young or aged bone marrow HPCs",greater sensitivity of secondary AML (sAML) LSC
